The target in experiment [1] is human A3 adenosine receptor. As to conditions: [3H]NECA, geometric mean with 95% confidence limits, read-out: hA3 (Ki nM), cited from earlier work.
Experiment [2] has as its target human A1 adenosine receptor. The conditions noted are these: [3H]CCPA, geometric mean with 95% confidence limits, read-out: hA1 (Ki nM), cited from earlier work.
For experiment [3], the target named is human A2A adenosine receptor. As to conditions: [3H]NECA, geometric mean with 95% confidence limits, read-out: hA2A (Ki nM), cited from earlier work.
Experiment [4] deals with T1, human A2B adenosine receptor (Homo sapiens, UniProt P29275).
T1 construct: expressed in transfected cells; host or cells: CHO cells, stably transfected; membrane preparation
T1 sequence (P29275 1-332): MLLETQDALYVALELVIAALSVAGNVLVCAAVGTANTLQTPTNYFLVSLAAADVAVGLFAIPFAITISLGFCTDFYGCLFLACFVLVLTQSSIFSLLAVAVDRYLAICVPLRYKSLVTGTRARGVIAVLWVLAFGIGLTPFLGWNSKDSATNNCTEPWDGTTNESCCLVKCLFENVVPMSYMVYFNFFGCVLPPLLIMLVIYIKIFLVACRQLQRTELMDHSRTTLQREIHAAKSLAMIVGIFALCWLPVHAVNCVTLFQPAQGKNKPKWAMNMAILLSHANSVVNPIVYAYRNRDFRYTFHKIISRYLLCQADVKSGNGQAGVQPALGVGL
Nature of the experiment: Radioligand binding, displacement of [3H]ZM241385 at human A2B receptors expressed in CHO cells. The conditions noted are these: 10 nM [3H]ZM241385, CHO cell membranes, 3 h room temperature; geometric mean with 95% confidence limits; reported for the first time; read-out: hA2B (Ki nM). How it is done:
All pharmacological methods followed the procedures described earlier. In brief, membranes for radioligand binding were prepared from CHO cells stably transfected with human adenosine receptor subtype (obtained as reported in reference) in a two-step procedure. In a first low-speed step (1000× g), cell fragments and nuclei were removed. The crude membrane fraction was sedimented from the supernatant at 100,000× g. The membrane pellet was resuspended in the buffer used for the respective binding experiments, frozen in liquid nitrogen, and stored at −80 °C.
Compounds were dissolved in DMSO and then diluted to the desired concentration in buffer, and at least 6 different concentrations were tested. DMSO in the final solution never exceeded 2%. For radioligand binding at A1 adenosine receptors, 1 nM [^3H]CCPA was used, whereas 30 and 10 nM [^3H]NECA were used for A2A and A3 receptors, respectively. Non-specific binding of [^3H]CCPA was determined in the presence of 1 mM theophylline; in the case of [^3H]NECA, 100 µM R-PIA was used. For radioligand binding assay of compounds 1–4 at A2B receptors, membranes (20 µg membrane protein) were incubated in a total volume of 200 µL (assay buffer: Tris/HCl pH 7.4, 10 mM MgCl2, 0.1% bovine serum albumin) with 10 nM [^3H]ZM241385. Non-specific binding of [^3H]ZM241385 was determined in the presence of 0.3 mM NECA. After 3 h at room temperature, samples were filtered and washed as described. Ki values from competition experiments were calculated with the program SCTFIT [32] and represented the mean of 3–6 replicates with 95% confidence limits.
In general terms: Loss of bound radioactivity is the signal in a displacement assay; it reports binding, not function.

The target in experiment [5] is hA2B adenosine receptor. Further details: method as in PMID 19501513, PMID 19908874. As to conditions: NECA (5 μM)-stimulated adenylyl cyclase, hA2B-CHO membranes; geometric mean with 95% confidence limits; cited from earlier work.
Setting [6] is: CHO cell membranes, compounds 1-7.

Like-named read-outs stand apart in the source and are kept apart here.

As usually defined, the Ki is a measure of affinity in units of concentration, obtained from inhibition or displacement. `CCCn1cc2c(nc(N)n3nc(-c4ccco4)nc23)n1` [Compound 10]: the Ki is 408 nM in experiment [1] (CHO cells, compounds 8-12); 10 nM in experiment [2] (CHO cells, compounds 8-12); 2.51 nM in experiment [3] (CHO cells, compounds 8-12).
Turning to `CC(C)CCn1cc2c(nc(N)n3nc(-c4ccco4)nc23)n1` [Compound 12], the inhibitory constant (Ki) in experiment [1] (CHO cells, compounds 8-12) is 700 nM; in experiment [2] (CHO cells, compounds 8-12), 2 nM.
By IC50 is commonly meant the concentration needed to halve the response being measured. Consider `CCCn1cc2c(nc(NC(=O)C(c3ccccc3)c3ccccc3)n3nc(-c4ccco4)nc23)n1` [Compound 3], for which the inhibition constant Ki is 0.93 nM in experiment [1] (setting [6]), 13.3 nM in experiment [4], 80.2 nM in experiment [2] (setting [6]) and 46.5 nM in experiment [3] (setting [6]). In addition, the concentration for half-maximal inhibition (IC50) in experiment [5] is 491 nM.
For the molecule `CCn1cc2c(nc(NC(=O)Cc3cccs3)n3nc(-c4ccco4)nc23)n1` [Compound 6], the Ki in experiment [1] (setting [6]) was 196 nM; in experiment [2] (setting [6]) it was 148 nM; in experiment [3] (setting [6]), 15.9 nM. The half-maximal inhibitory concentration (IC50) in experiment [5] is greater than 10000 nM.
For `CC(C)CCn1cc2c(nc(NC(=O)C(c3ccccc3)c3ccccc3)n3nc(-c4ccco4)nc23)n1` [Compound 5], the Ki in experiment [1] (setting [6]) was 5.86 nM; in experiment [2] (setting [6]) it was 441 nM; in experiment [3] (setting [6]), 159 nM. In experiment [5], the IC50 is greater than 10000 nM.
For the molecule `Cn1cc2c(nc(NC(=O)C(c3ccccc3)c3ccccc3)n3nc(-c4ccco4)nc23)n1` [Compound 1], the Ki is 0.25 nM in experiment [1] (setting [6]), 29.1 nM in experiment [4], 139 nM in experiment [2] (setting [6]) and 216 nM in experiment [3] (setting [6]). For the same molecule, the half-inhibitory concentration (IC50) in experiment [5] was 363 nM.
For `CCCCn1cc2c(nc(N)n3nc(-c4ccco4)nc23)n1` [Compound 11], the Ki was 600 nM in experiment [1] (CHO cells, compounds 8-12); 14 nM in experiment [2] (CHO cells, compounds 8-12); 1.6 nM in experiment [3] (CHO cells, compounds 8-12).
Regarding `Cn1cc2c(nc(N)n3nc(-c4ccco4)nc23)n1` [Compound 8], the inhibitory constant (Ki) in experiment [1] (CHO cells, compounds 8-12) was 300 nM; in experiment [2] (CHO cells, compounds 8-12) it was 101 nM; in experiment [3] (CHO cells, compounds 8-12) it was 2.8 nM.
`CCn1cc2c(nc(N)n3nc(-c4ccco4)nc23)n1` [Compound 9]: the inhibition constant Ki in experiment [1] (CHO cells, compounds 8-12) is 331 nM; in experiment [2] (CHO cells, compounds 8-12) it was 5 nM; in experiment [3] (CHO cells, compounds 8-12) it was 1.95 nM.
`Cn1cc2c(nc(NC(=O)Cc3cccs3)n3nc(-c4ccco4)nc23)n1` [Compound 7]: the inhibition constant Ki in experiment [1] (setting [6]) was 5.26 nM; in experiment [2] (setting [6]), 444 nM; in experiment [3] (setting [6]) it was 56 nM. Moreover, in experiment [5], the IC50 is greater than 10000 nM.
As for `CCCCn1cc2c(nc(NC(=O)C(c3ccccc3)c3ccccc3)n3nc(-c4ccco4)nc23)n1` [Compound 4], the results for the Ki in experiment [1] (setting [6]), in experiment [2] (setting [6]) and in experiment [3] (setting [6]) were 1.2 nM, 129 nM and 114 nM, respectively. Also, the half-maximal inhibitory concentration (IC50) in experiment [5] was 780 nM.
Turning to `CCn1cc2c(nc(NC(=O)C(c3ccccc3)c3ccccc3)n3nc(-c4ccco4)nc23)n1` [Compound 2], the Ki was 0.98 nM in experiment [1] (setting [6]), 18.3 nM in experiment [4], 156 nM in experiment [2] (setting [6]) and 131 nM in experiment [3] (setting [6]). The IC50 in experiment [5] is 745 nM.

Source of the values: PMC10669182, “Pyrazolo-triazolo-pyrimidine Scaffold as a Molecular Passepartout for the Pan-Recognition of Human Adenosine Receptors” (Biomolecules, 2023).
